Test system: MV-4-11 cells
Assay: Gene expression microarray analysis (Affymetrix PrimeView) and GSEA
Assay type: cell-based, human
Design: RFU PODN (11730768_x_at) / Fold change /veh PODN (11730768_x_at) / RFU LINC00158 (11744669_a_at) / Fold change /veh LINC00158 (11744669_a_at) / RFU DUSP10 (11751237_a_at) / Fold change /veh DUSP10 (11751237_a_at) / RFU ID3 (11757404_x_at) / Fold change /veh ID3 (11757404_x_at) / RFU PLEKHG5 (11737974_s_at) / Fold change /veh PLEKHG5 (11737974_s_at) / RFU LRRC4B (11730491_at) / Fold change /veh LRRC4B (11730491_at) / RFU GIMAP4 (11747438_a_at) / Fold change /veh GIMAP4 (11747438_a_at) / RFU KRT8 (11758183_x_at) / Fold change /veh KRT8 (11758183_x_at) / RFU CNN1 (11734310_a_at) / Fold change /veh CNN1 (11734310_a_at) / RFU VPS37D (11726825_at) / Fold change /veh VPS37D (11726825_at) / RFU C10orf10 (11716522_x_at) / Fold change /veh C10orf10 (11716522_x_at) / RFU KIR2DL2 /// KIR2DL4 /// KIR2DL5A /// KIR2DL5B /// KIR2DS1 /// KIR2DS2 /// KIR2DS3 /// KIR2DS4 /// KIR3DL3 /// KIR3DL3 /// KIR3DS1 (11738374_at) / Fold change /veh KIR2DL2 /// KIR2DL4 /// KIR2DL5A /// KIR2DL5B /// KIR2DS1 /// KIR2DS2 /// KIR2DS3 /// KIR2DS4 /// KIR3DL3 /// KIR3DL3 /// KIR3DS1 (11738374_at) / RFU C1QL1 (11718748_at) / Fold change /veh C1QL1 (11718748_at) / RFU TMPRSS4 (11747572_a_at) / Fold change /veh TMPRSS4 (11747572_a_at) / RFU HAMP (11756126_x_at) / Fold change /veh HAMP (11756126_x_at) / RFU RNFT2 (11725882_a_at) / Fold change /veh RNFT2 (11725882_a_at) / RFU NR4A2 (11747474_a_at) / Fold change /veh NR4A2 (11747474_a_at) / RFU ABCC12 (11746883_a_at) / Fold change /veh ABCC12 (11746883_a_at) / RFU TMEM136 (11760407_x_at) / Fold change /veh TMEM136 (11760407_x_at) / RFU CLDN22 /// WWC2 (11732394_at) / Fold change /veh CLDN22 /// WWC2 (11732394_at) / RFU HLA-DPB1 (11760878_x_at) / Fold change /veh HLA-DPB1 (11760878_x_at) / RFU SPINT1 (11716480_a_at) / Fold change /veh SPINT1 (11716480_a_at) / RFU GAP43 (11754022_s_at) / Fold change /veh GAP43 (11754022_s_at) / RFU A4GNT (11735810_at) / Fold change /veh A4GNT (11735810_at) / RFU PRB3 (11715151_x_at) / Fold change /veh PRB3 (11715151_x_at) / RFU TUBB4B (11761932_at) / Fold change /veh TUBB4B (11761932_at) / RFU CAPN14 (11732068_a_at) / Fold change /veh CAPN14 (11732068_a_at) / RFU TMCC2 (11721928_a_at) / Fold change /veh TMCC2 (11721928_a_at) / RFU IRGQ (11745062_a_at) / Fold change /veh IRGQ (11745062_a_at) / RFU FAM174B (11720279_a_at) / Fold change /veh FAM174B (11720279_a_at) / RFU TMPRSS4 (11748680_a_at) / Fold change /veh TMPRSS4 (11748680_a_at) / RFU FAM212B (11763350_a_at) / Fold change /veh FAM212B (11763350_a_at) / RFU PLEKHG5 (11743358_a_at) / Fold change /veh PLEKHG5 (11743358_a_at) / RFU ZSCAN30 (11745921_a_at) / Fold change /veh ZSCAN30 (11745921_a_at) / RFU CMKLR1 (11741424_a_at) / Fold change /veh CMKLR1 (11741424_a_at) / RFU LOC101060620 /// MAPK8IP1 (11723275_at) / Fold change /veh LOC101060620 /// MAPK8IP1 (11723275_at) / RFU SPTSSB (11747773_x_at) / Fold change /veh SPTSSB (11747773_x_at) / RFU PRSS12 (11739890_at) / Fold change /veh PRSS12 (11739890_at) / RFU BIN1 (11741810_x_at) / Fold change /veh BIN1 (11741810_x_at) / RFU WNT11 (11732464_a_at) / Fold change /veh WNT11 (11732464_a_at) / RFU C10orf10 (11716521_a_at) / Fold change /veh C10orf10 (11716521_a_at) / RFU C5orf56 (11738089_at) / Fold change /veh C5orf56 (11738089_at) / RFU CYB561 (11721691_x_at) / Fold change /veh CYB561 (11721691_x_at) / RFU ANKRD19P (11752326_a_at) / Fold change /veh ANKRD19P (11752326_a_at) / RFU OR2T12 /// OR2T33 /// OR2T8 (11738714_s_at) / Fold change /veh OR2T12 /// OR2T33 /// OR2T8 (11738714_s_at) / RFU VCAN (11748164_a_at) / Fold change /veh VCAN (11748164_a_at) / RFU JSRP1 (11732532_at) / Fold change /veh JSRP1 (11732532_at) / RFU KRTAP10-11 (11738290_x_at) / Fold change /veh KRTAP10-11 (11738290_x_at) / RFU MYO3A (11730013_a_at) / Fold change /veh MYO3A (11730013_a_at) / RFU EBF3 (11725865_a_at) / Fold change /veh EBF3 (11725865_a_at) / RFU CAMK2N1 (11719241_x_at) / Fold change /veh CAMK2N1 (11719241_x_at) / RFU C5orf56 (11738088_a_at) / Fold change /veh C5orf56 (11738088_a_at) / RFU OLFML3 (11715873_a_at) / Fold change /veh OLFML3 (11715873_a_at) / RFU LOC100653217 /// NTM (11731650_a_at) / Fold change /veh LOC100653217 /// NTM (11731650_a_at) / RFU MAPK11 (11762145_a_at) / Fold change /veh MAPK11 (11762145_a_at) / RFU FIZ1 (11724087_x_at) / Fold change /veh FIZ1 (11724087_x_at) / RFU OASL (11726364_x_at) / Fold change /veh OASL (11726364_x_at) / RFU SOX15 (11748057_x_at) / Fold change /veh SOX15 (11748057_x_at) / RFU CD79A (11719716_a_at) / Fold change /veh CD79A (11719716_a_at) / RFU HIST1H1D (11736915_at) / Fold change /veh HIST1H1D (11736915_at) / RFU CASKIN2 (11723855_a_at) / Fold change /veh CASKIN2 (11723855_a_at) / RFU LOC730098 (11760151_x_at) / Fold change /veh LOC730098 (11760151_x_at) / RFU OR4N2 (11742367_at) / Fold change /veh OR4N2 (11742367_at) / RFU PRRT2 (11749266_a_at) / Fold change /veh PRRT2 (11749266_a_at) / RFU SNX32 (11753110_a_at) / Fold change /veh SNX32 (11753110_a_at) / RFU CDHR5 (11726645_a_at) / Fold change /veh CDHR5 (11726645_a_at) / RFU RCAN1 (11760418_a_at) / Fold change /veh RCAN1 (11760418_a_at) / RFU FAM167A (11723789_a_at) / Fold change /veh FAM167A (11723789_a_at) / RFU FAM26E (11764081_at) / Fold change /veh FAM26E (11764081_at) / RFU ISYNA1 (11749810_s_at) / Fold change /veh ISYNA1 (11749810_s_at) / RFU ACY1 (11761880_at) / Fold change /veh ACY1 (11761880_at) / RFU 11764098_at / Fold change /veh 11764098_at / RFU SAMD14 (11745864_x_at) / Fold change /veh SAMD14 (11745864_x_at) / RFU NPB (11741838_a_at) / Fold change /veh NPB (11741838_a_at) / RFU TMPRSS6 (11731388_a_at) / Fold change /veh TMPRSS6 (11731388_a_at) / RFU KRTAP10-2 (11738614_at) / Fold change /veh KRTAP10-2 (11738614_at) / RFU ARHGAP8 /// PRR5-ARHGAP8 (11727945_x_at) / Fold change /veh ARHGAP8 /// PRR5-ARHGAP8 (11727945_x_at) / RFU KRTAP5-7 /// NADSYN1 (11734609_at) / Fold change /veh KRTAP5-7 /// NADSYN1 (11734609_at) / RFU RASL12 (11751679_a_at) / Fold change /veh RASL12 (11751679_a_at) / RFU CDKN2B (11736163_a_at) / Fold change /veh CDKN2B (11736163_a_at) / RFU PRF1 (11729649_at) / Fold change /veh PRF1 (11729649_at) / RFU, ZNF638 /// ZNF638-IT1 / Fold change vs veh, ZNF638 /// ZNF638-IT1 / RFU, PANK3 / Fold change vs veh, PANK3 / RFU, SH3YL1 / Fold change vs veh, SH3YL1 / RFU, ZEB2 / Fold change vs veh, ZEB2 / RFU, NRIP1 / Fold change vs veh, NRIP1 / RFU, PTTG1IP / Fold change vs veh, PTTG1IP / RFU, CAPN2 / Fold change vs veh, CAPN2 / RFU, MED14 / Fold change vs veh, MED14 / RFU, SNORA58 / Fold change vs veh, SNORA58 / RFU, C1orf63 / Fold change vs veh, C1orf63 / RFU, LRRFIP1 / Fold change vs veh, LRRFIP1 / RFU, NDUFAF7 / Fold change vs veh, NDUFAF7 / RFU, SLC12A2 / Fold change vs veh, SLC12A2 / RFU, IBTK / Fold change vs veh, IBTK / RFU, ESF1 / Fold change vs veh, ESF1 / Fold change vs veh, TMEM50B / RFU, TAOK1 / Fold change vs veh, TAOK1 / RFU, ACBD3 / Fold change vs veh, ACBD3 / RFU, TMA16 / Fold change vs veh, TMA16 / RFU, RWDD3 / Fold change vs veh, RWDD3 / RFU, BCAT1 / Fold change vs veh, BCAT1 / RFU, EDEM3 / Fold change vs veh, EDEM3 / RFU, TMEM33 / Fold change vs veh, TMEM33 / RFU, WDR75 / Fold change vs veh, WDR75 / RFU, AHCTF1 / Fold change vs veh, AHCTF1 / RFU, TFRC / Fold change vs veh, TFRC / RFU, ZDHHC17 / Fold change vs veh, ZDHHC17 / RFU, NOM1 / Fold change vs veh, NOM1 / RFU, ARL8B / Fold change vs veh, ARL8B / RFU, ZBTB11 / Fold change vs veh, ZBTB11 / RFU, TAMM41 / Fold change vs veh, TAMM41 / RFU, KIAA1704 /// LOC100996395 / Fold change vs veh, KIAA1704 /// LOC100996395 / RFU, ING1 / Fold change vs veh, ING1 / RFU, TRMT61B / Fold change vs veh, TRMT61B / RFU, FUBP3 / Fold change vs veh, FUBP3 / RFU, TP53 / Fold change vs veh, TP53 / RFU, TNKS2 / Fold change vs veh, TNKS2 / RFU, ZFP14 / Fold change vs veh, ZFP14 / RFU, ACTR2 / Fold change vs veh, ACTR2 / RFU, PPP3R1 / Fold change vs veh, PPP3R1 / RFU, PIK3R1 / Fold change vs veh, PIK3R1 / RFU, HNRNPA1 / Fold change vs veh, HNRNPA1 / RFU, RNF170 / Fold change vs veh, RNF170 / RFU, ZNF28 / Fold change vs veh, ZNF28 / RFU, RNGTT / Fold change vs veh, RNGTT / RFU, OGT / Fold change vs veh, OGT / RFU, BRD1 / Fold change vs veh, BRD1 / RFU, MARS / Fold change vs veh, MARS / RFU, ZNF655 / Fold change vs veh, ZNF655 / RFU, FAHD1 / Fold change vs veh, FAHD1 / RFU, BDP1 / Fold change vs veh, BDP1 / RFU, LRRCC1 / Fold change vs veh, LRRCC1 / RFU, ARID1A / Fold change vs veh, ARID1A / RFU, ZNF146 / Fold change vs veh, ZNF146 / RFU, ZNF330 / Fold change vs veh, ZNF330 / RFU, GPN3 / Fold change vs veh, GPN3 / RFU, C9orf123 / Fold change vs veh, C9orf123 / RFU, N4BP2L2 / Fold change vs veh, N4BP2L2 / RFU, ARFIP1 / Fold change vs veh, ARFIP1 / RFU, FAM179B / Fold change vs veh, FAM179B / RFU, BCL10 / Fold change vs veh, BCL10 / RFU, UHRF1BP1L / Fold change vs veh, UHRF1BP1L / RFU, BET1 / Fold change vs veh, BET1 / RFU, CNOT2 / Fold change vs veh, CNOT2 / RFU, ZNF268 / Fold change vs veh, ZNF268 / Fold change vs veh, ZNF507 / RFU, DGCR2 / Fold change vs veh, DGCR2 / RFU, WDSUB1 / Fold change vs veh, WDSUB1 / Fold change vs veh, HSP90B1 /// MIR3652 / RFU, ADSS / Fold change vs veh, ADSS / RFU, GK / Fold change vs veh, GK / RFU, ZNF148 / Fold change vs veh, ZNF148 / RFU, TAF9 / Fold change vs veh, TAF9 / RFU, SLC1A5 / Fold change vs veh, SLC1A5 / RFU, SLMO2 / Fold change vs veh, SLMO2 / RFU, ABCC4 / Fold change vs veh, ABCC4 / RFU, LOC101060439 /// RAP1B / Fold change vs veh, LOC101060439 /// RAP1B / RFU, RFX7 / Fold change vs veh, RFX7 / RFU, GTPBP10 / Fold change vs veh, GTPBP10 / RFU, CNEP1R1 / Fold change vs veh, CNEP1R1 / RFU, BIVM-ERCC5 /// ERCC5 / Fold change vs veh, BIVM-ERCC5 /// ERCC5 / RFU, ILF3 / Fold change vs veh, ILF3 / RFU 11762660_at / Fold change /veh 11762660_at / RFU VCAN (11757783_s_at) / Fold change /veh VCAN (11757783_s_at) / RFU DDX43 (11728927_at) / Fold change /veh DDX43 (11728927_at) / RFU KRT8 (11758188_x_at) / Fold change /veh KRT8 (11758188_x_at) / RFU NKD1 (11759106_at) / Fold change /veh NKD1 (11759106_at) / RFU SRD5A1 (11742802_a_at) / Fold change /veh SRD5A1 (11742802_a_at) / RFU TPSAB1 /// TPSB2 (11721975_s_at) / Fold change /veh TPSAB1 /// TPSB2 (11721975_s_at) / RFU GSTM3 (11746129_a_at) / Fold change /veh GSTM3 (11746129_a_at) / RFU IL23R (11737362_x_at) / Fold change /veh IL23R (11737362_x_at) / RFU TMEM51 (11727254_a_at) / Fold change /veh TMEM51 (11727254_a_at) / RFU PIWIL2 (11732686_x_at) / Fold change /veh PIWIL2 (11732686_x_at) / RFU ORM1 (11744905_x_at) / Fold change /veh ORM1 (11744905_x_at) / RFU CCDC152 (11743942_at) / Fold change /veh CCDC152 (11743942_at) / RFU ECM1 (11717891_a_at) / Fold change /veh ECM1 (11717891_a_at) / RFU IL23R (11748794_a_at) / Fold change /veh IL23R (11748794_a_at) / RFU TNFAIP8L3 (11732012_x_at) / Fold change /veh TNFAIP8L3 (11732012_x_at) / RFU MBOAT4 (11741988_at) / Fold change /veh MBOAT4 (11741988_at) / RFU 11764193_at / Fold change /veh 11764193_at / RFU TMEM53 (11763286_at) / Fold change /veh TMEM53 (11763286_at) / RFU MAGEB2 (11727129_at) / Fold change /veh MAGEB2 (11727129_at) / RFU TMEM200A (11744735_a_at) / Fold change /veh TMEM200A (11744735_a_at) / RFU CCDC152 (11751479_a_at) / Fold change /veh CCDC152 (11751479_a_at) / RFU FAM211A (11726209_a_at) / Fold change /veh FAM211A (11726209_a_at) / RFU RGS16 (11746705_a_at) / Fold change /veh RGS16 (11746705_a_at) / RFU VCAN (11755009_s_at) / Fold change /veh VCAN (11755009_s_at) / RFU RHOB (11743442_s_at) / Fold change /veh RHOB (11743442_s_at) / RFU RGS16 (11720943_a_at) / Fold change /veh RGS16 (11720943_a_at) / RFU RGS16 (11720944_at) / Fold change /veh RGS16 (11720944_at) / RFU, VPS4B / Fold change vs veh, VPS4B / RFU, CREB1 / Fold change vs veh, CREB1 / RFU, DNAJC13 / Fold change vs veh, DNAJC13 / RFU, GNAQ / Fold change vs veh, GNAQ / RFU, CDK5R1 / Fold change vs veh, CDK5R1 / RFU, ZRANB3 / Fold change vs veh, ZRANB3 / RFU, CUL4A / Fold change vs veh, CUL4A / RFU, CCNY / Fold change vs veh, CCNY / RFU, UFL1 / Fold change vs veh, UFL1 / RFU, COG3 / Fold change vs veh, COG3 / RFU, DIAPH2 / Fold change vs veh, DIAPH2 / RFU, SKA2 / Fold change vs veh, SKA2 / RFU, AFF3 / Fold change vs veh, AFF3 / RFU, LMF1 / Fold change vs veh, LMF1 / RFU, IPO11 / Fold change vs veh, IPO11 / RFU, DFFB / Fold change vs veh, DFFB / RFU, FOXP1 / Fold change vs veh, FOXP1 / RFU, CARD8 / Fold change vs veh, CARD8 / RFU, STRN3 / Fold change vs veh, STRN3 / RFU, ADK / Fold change vs veh, ADK / RFU, RASSF2 / Fold change vs veh, RASSF2 / RFU, WIPF1 / Fold change vs veh, WIPF1 / RFU, LARP1B / Fold change vs veh, LARP1B / RFU, RASA1 / Fold change vs veh, RASA1 / RFU, RB1 / Fold change vs veh, RB1 / RFU, PPFIA1 / Fold change vs veh, PPFIA1 / RFU, MAT2A / Fold change vs veh, MAT2A / RFU, CCT5 / Fold change vs veh, CCT5 / RFU, WDR92 / Fold change vs veh, WDR92 / RFU, CUX1 / Fold change vs veh, CUX1 / RFU, TTC7A / Fold change vs veh, TTC7A / RFU, TMEM135 / Fold change vs veh, TMEM135 / RFU, DEPTOR / Fold change vs veh, DEPTOR / RFU, CPM / Fold change vs veh, CPM / RFU, DNAJB6 / Fold change vs veh, DNAJB6 / RFU, CACNA2D3 / Fold change vs veh, CACNA2D3 / RFU, DTX4 / Fold change vs veh, DTX4 / RFU, TFCP2 / Fold change vs veh, TFCP2 / RFU, GMCL1 /// GMCL1P1 / Fold change vs veh, GMCL1 /// GMCL1P1 / RFU, AEBP2 / Fold change vs veh, AEBP2 / RFU, SNHG1 /// SNORD22 /// SNORD25 /// SNORD26 /// SNORD27 /// SNORD28 /// SNORD29 /// SNORD31 / Fold change vs veh, SNHG1 /// SNORD22 /// SNORD25 /// SNORD26 /// SNORD27 /// SNORD28 /// SNORD29 /// SNORD31 / Fold change (Aza/veh), C12orf56 (ProbeSet 11735607_a_at) / Fold change (ACY-1035/veh), C12orf56 (ProbeSet 11735607_a_at) / Fold change (Aza/veh), FGFR1OP (ProbeSet 11751329_s_at) / Fold change (ACY-1035/veh), FGFR1OP (ProbeSet 11751329_s_at) / Fold change (Aza/veh), VPS36 (ProbeSet 11739960_a_at) / Fold change (ACY-1035/veh), VPS36 (ProbeSet 11739960_a_at) / RFU SYPL1 (11715823_x_at) / Fold change /veh SYPL1 (11715823_x_at) / RFU IGFBP7 (11715501_s_at) / Fold change /veh IGFBP7 (11715501_s_at) / RFU REEP3 (11722064_at) / Fold change /veh REEP3 (11722064_at) / RFU IGLL1 (11728026_x_at) / Fold change /veh IGLL1 (11728026_x_at): dose or concentration left out as unconfirmed
Details: MV-4-11 cells, 48 hours

Nc1ncn([C@@H]2O[C@H](CO)[C@@H](O)[C@H]2O)c(=O)n1 [azacitidine]
RFU HIST1H1D (11736915_at): 16.89 RFU

— article PMC5218480 (PLoS ONE, 2017)
